Results as given in PMC4858680, “A platinum-based hybrid drug design approach to circumvent acquired resistance to molecular targeted tyrosine kinase inhibitors” (Scientific Reports, 2016).
Read-outs that look alike come from different tables or passages of the source.

What was measured:
HEK293 Mock transfected = assay: Anticancer activity in mock transfected HEK293; assay type: cell-based; conditions: Bcr-Abl negative
K562 Ima1.0 = assay: Anticancer activity in imatinib-selected resistant K562 subline; assay type: cell-based; conditions: for IC50: read-out: Anticancer activity (IC50) K562 Imatinib selected (K562 Ima1.0), Bcr-Abl amplification
[1] = Chemical stability of the hybrid compounds; conditions: for chemical stability in culture medium: Dulbecco’s Modified Eagle Medium supplemented with 5 mM glutathione
K562 = assay: Anticancer activity (cytotoxicity) in CML cell line; assay type: cell-based
H292 = assay: Anticancer activity (cytotoxicity) in NSCLC cell line; assay type: cell-based; conditions: NSCLC; EGFR wild type; read-out: Anticancer activity (IC50) H292
P-gp (MDCKII–P-gp) = P-gp (MDCKII–P-gp) (Homo sapiens, UniProt P08183); conditions: 10 μM, mean of three experiments
p38 = assay: Western blot analysis of p38 phosphorylation; assay type: cell-based
RPMI8226 = assay: Anticancer activity (cytotoxicity) in Bcr-Abl negative cell line; assay type: cell-based
HEK293 Bcr-Abl E255K = assay: Anticancer activity in HEK293 stably transfected with Bcr-Abl E255K; assay type: cell-based; conditions: for IC50: stably transfected
HEK293 Bcr-Abl wild type = assay: Anticancer activity in HEK293 stably transfected with wild type Bcr-Abl; assay type: cell-based
HCC827 = assay: Anticancer activity (cytotoxicity) in NSCLC cell line; assay type: cell-based; conditions: EGFR ΔE746-A750 (sensitizing)
H1975 = assay: as above; assay type: cell-based; conditions: H1975 versus HCC827
ABCG2 = target: T1, ABCG2 (Homo sapiens, UniProt Q9UNQ0, R482G); assay: 5D3 shift assay; assay type: cell-based; conditions: ABCG2-overexpressing S1M1-80 cells; flow cytometry
T1 construct: endogenous in cells; host or cells: S1M1-80

P-gp = P-gp (Homo sapiens, UniProt P08183); assay: UIC2 shift assay; assay type: cell-based; set-up: endogenous in cells; host or cells: SW620 Ad300; conditions: P-gp overexpressing SW620 Ad300 cells; flow cytometry
[2] = CML cell line, Bcr-Abl positive, Table 1, read-out: Anticancer activity (IC50) K562
[3] = Table 2, read-out: Anticancer activity (IC50) K562 Sensitive parental

Sequence of P-gp (MDCKII–P-gp) (P08183 whole entry): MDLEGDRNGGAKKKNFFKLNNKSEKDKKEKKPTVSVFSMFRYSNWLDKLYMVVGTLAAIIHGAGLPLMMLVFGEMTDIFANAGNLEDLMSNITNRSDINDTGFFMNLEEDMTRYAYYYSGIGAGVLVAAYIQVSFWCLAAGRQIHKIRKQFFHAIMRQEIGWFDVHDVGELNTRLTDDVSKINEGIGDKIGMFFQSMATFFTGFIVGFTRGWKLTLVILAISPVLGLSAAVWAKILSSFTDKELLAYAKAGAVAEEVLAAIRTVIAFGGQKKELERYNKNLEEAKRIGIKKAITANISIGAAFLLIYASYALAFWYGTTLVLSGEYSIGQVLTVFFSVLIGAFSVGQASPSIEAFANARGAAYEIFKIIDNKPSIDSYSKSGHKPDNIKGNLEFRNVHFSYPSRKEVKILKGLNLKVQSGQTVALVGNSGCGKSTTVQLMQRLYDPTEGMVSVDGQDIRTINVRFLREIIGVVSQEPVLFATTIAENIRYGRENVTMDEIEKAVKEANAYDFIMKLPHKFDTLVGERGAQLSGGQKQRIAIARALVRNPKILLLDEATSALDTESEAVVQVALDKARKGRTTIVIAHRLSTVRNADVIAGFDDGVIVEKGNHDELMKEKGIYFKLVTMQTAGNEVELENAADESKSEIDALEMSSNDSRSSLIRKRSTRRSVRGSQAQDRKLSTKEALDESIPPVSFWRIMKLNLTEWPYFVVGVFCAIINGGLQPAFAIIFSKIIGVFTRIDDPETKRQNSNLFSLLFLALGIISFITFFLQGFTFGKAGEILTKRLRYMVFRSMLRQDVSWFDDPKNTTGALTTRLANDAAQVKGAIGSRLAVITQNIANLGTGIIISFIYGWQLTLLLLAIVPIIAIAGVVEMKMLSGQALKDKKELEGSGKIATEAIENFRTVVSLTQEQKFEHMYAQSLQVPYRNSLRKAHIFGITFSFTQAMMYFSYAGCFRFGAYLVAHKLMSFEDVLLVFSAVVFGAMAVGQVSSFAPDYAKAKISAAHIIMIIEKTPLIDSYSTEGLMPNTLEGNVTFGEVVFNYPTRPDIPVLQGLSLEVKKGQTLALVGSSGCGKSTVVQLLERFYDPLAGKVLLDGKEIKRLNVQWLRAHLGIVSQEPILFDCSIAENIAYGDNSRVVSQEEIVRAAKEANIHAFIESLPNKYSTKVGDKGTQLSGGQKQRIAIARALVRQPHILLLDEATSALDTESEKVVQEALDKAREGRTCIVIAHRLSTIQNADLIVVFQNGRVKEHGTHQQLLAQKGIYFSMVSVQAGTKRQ
Sequence of P-gp (P08183 whole entry): as above
T1 sequence (Q9UNQ0 whole entry R482G): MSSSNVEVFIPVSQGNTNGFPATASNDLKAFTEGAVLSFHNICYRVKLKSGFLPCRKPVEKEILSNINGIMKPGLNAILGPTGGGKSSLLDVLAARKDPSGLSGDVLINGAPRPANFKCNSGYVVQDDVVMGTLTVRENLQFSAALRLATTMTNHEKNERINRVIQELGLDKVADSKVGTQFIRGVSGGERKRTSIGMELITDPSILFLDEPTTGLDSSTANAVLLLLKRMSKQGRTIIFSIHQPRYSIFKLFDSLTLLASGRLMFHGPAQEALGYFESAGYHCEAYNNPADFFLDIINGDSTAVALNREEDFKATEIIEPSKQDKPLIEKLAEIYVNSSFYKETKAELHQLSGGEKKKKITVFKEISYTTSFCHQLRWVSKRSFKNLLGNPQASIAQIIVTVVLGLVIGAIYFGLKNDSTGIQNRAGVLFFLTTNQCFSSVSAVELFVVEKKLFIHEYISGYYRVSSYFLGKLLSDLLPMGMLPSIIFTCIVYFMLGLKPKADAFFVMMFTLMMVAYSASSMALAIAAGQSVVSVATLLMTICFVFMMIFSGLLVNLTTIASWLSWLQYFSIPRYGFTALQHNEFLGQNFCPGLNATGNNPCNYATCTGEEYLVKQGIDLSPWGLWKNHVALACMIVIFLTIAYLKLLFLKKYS

Structure (SMILES): Cc1ccc(NC(=O)c2ccc(CN3CCN(C)CC3)cc2)cc1Nc1nccc(-c2cccnc2)[n+]1[Pt@SP3-2]([NH3+])([NH3+])[Cl] [1c, transplatin-imatinib]
- IC50 (HEK293 Mock transfected): 10.1 ± 1.39 µM
- IC50 (K562 Ima1.0): 1.05 ± 0.14 µM
- DNA damage marker (phosphor-γ-H2Ax) (Western blot) (phosphor-γ-H2Ax): concentration dependent upregulation
- chemical stability in culture medium [1]: undergo gradual degradation to release the original TKI
- IC50 (K562; [2]): 1.04 ± 0.01 µM
- IC50 (K562; [3]): 1.04 ± 0.01 µM
- activation of downstream ERK1/2 (Western blot) (ERK1/2 in K562 Ima1.0): able to inhibit the activation

Structure (SMILES): C#Cc1cccc(Nc2c3cc(OCCOC)c(OCCOC)cc3nc[n+]2[Pt-2]2([Cl])[NH2+]C3CCCCC3[NH2+]2)c1 (stereo not drawn) [2b, oxaliplatin-erlotinib]
- IC50 (H292): 1.33 ± 0.39 µM
- chemical stability in all conditions tested ([1]; saline, phosphate buffered solution (pH 4 and 7.4), culture medium with 5 mM glutathione): stable
- A to B transport (apparent permeability) (P-gp (MDCKII–P-gp)): 6.59 × 10^−6

Structure (SMILES): C#Cc1cccc(Nc2c3cc(OCCOC)c(OCCOC)cc3nc[n+]2[Pt@SP3-2]([NH3+])([NH3+])[Cl])c1 [2c, transplatin-erlotinib]
- chemical stability in culture medium [1]: undergo gradual degradation to release the original TKI
- A to B transport (apparent permeability) (P-gp (MDCKII–P-gp)): 3.57 × 10^−6
- B to A transport (apparent permeability) (P-gp (MDCKII–P-gp)): 3.40 × 10^−6

Structure (SMILES): COc1cc2c(Nc3ccc(Br)cc3F)[n+]([Pt@SP2-2]([NH2])([NH3+])[Cl])cnc2cc1OCC1CCN(C)CC1 [3a, cisplatin-vandetanib]
- IC50 (H292): 26.4 ± 3.19 µM

Structure (SMILES): COc1cc2c(Nc3ccc(Br)cc3F)[n+]([Pt@SP3-2]([NH2])([NH3+])[Cl])cnc2cc1OCC1CCN(C)CC1 [3c, transplatin-vandetanib]
- IC50 (H292): 18.4 ± 4.48 µM

Structure (SMILES): N.N.[Cl][Pt][Cl] [Cisplatin]
- IC50 (H292): 2.12 ± 0.87 µM
- IC50 (HEK293 Mock transfected): 5.43 ± 0.72 µM
- p38 phosphorylation (Western blot) (p38): induce p38 phosphorylation
- IC50 (K562 Ima1.0): 17.5 ± 1.06 µM
- IC50 (RPMI8226): 2.97 ± 0.82 µM
- IC50 (K562; [2]): 19.8 ± 1.42 µM
- IC50 (K562; [3]): 19.8 ± 1.42 µM
- IC50 (HEK293 Bcr-Abl E255K): 6.54 ± 0.49 µM
- IC50 (HEK293 Bcr-Abl wild type): 8.16 ± 1.01 µM
- IC50 (HCC827): 6.65 ± 1.66 µM

Structure (SMILES): O=C1[O][Pt]2([NH][C@@H]3CCCC[C@H]3[NH]2)[O]C1=O [Oxaliplatin]
- IC50 (H292): 3.77 ± 0.35 µM
- IC50 (HEK293 Mock transfected): 2.41 ± 0.32 µM
- IC50 (K562 Ima1.0): 16.4 ± 1.14 µM
- Fold resistance K562 Ima1.0 (K562 Ima1.0; versus sensitive parental K562): 1.0
- IC50 (RPMI8226): 0.43 ± 0.04 µM
- IC50 (K562; [2]): 16.6 ± 2.08 µM
- IC50 (K562; [3]): 16.6 ± 2.08 µM
- IC50 (HEK293 Bcr-Abl E255K): 2.65 ± 0.71 µM
- Fold resistance HEK293 Bcr-Abl E255K (HEK293 Bcr-Abl E255K; versus HEK293 Bcr-Abl wild type): 0.8
- IC50 (HEK293 Bcr-Abl wild type): 3.15 ± 0.87 µM
- IC50 (HCC827): 3.6 ± 1.76 µM
- Fold resistance (IC50 in H1975/IC50 in HCC827) (H1975): 1.4

Structure (SMILES): O=c1c(O)c(-c2ccc(O)c(O)c2)oc2cc(O)cc(O)c12 [quercetin]
- 5D3 shift (interaction with ABCG2) (ABCG2): concentration dependent antibody shift

Structure (SMILES): C=C[C@H]1C[N@@]2CC[C@H]1C[C@H]2[C@H](O)c1ccnc2ccc(OC)cc12 [quinine]
- UIC2 shift (interaction with P-gp) (P-gp): concentration dependent antibody shift
